Measured values: ChEMBL document CHEMBL5126633, “Developing HDAC4-Selective Protein Degraders To Investigate the Role of HDAC4 in Huntington's Disease Pathology” (J Med Chem, 2022)
Values after ≈ are worked out from the molar mass of the structure shown. Active and inactive are the calls of the source. No cut-off for these calls is given here.

Tests used:
[1] = target: T1, von Hippel-Lindau disease tumor suppressor/Histone deacetylase 4 (Homo sapiens) (UniProt P56524+P40337); experiment: Protac activity at VHL/HDAC4 in human Jurkat E6.1 cells assessed as induction of HDAC4 degradation by measuring maximum degradation at 10 uM incubated for 24 hrs by ELISA-based MSD electrochemiluminescence assay relative to control; format: cell-based
T1 sequence (P40337 whole entry, looked up): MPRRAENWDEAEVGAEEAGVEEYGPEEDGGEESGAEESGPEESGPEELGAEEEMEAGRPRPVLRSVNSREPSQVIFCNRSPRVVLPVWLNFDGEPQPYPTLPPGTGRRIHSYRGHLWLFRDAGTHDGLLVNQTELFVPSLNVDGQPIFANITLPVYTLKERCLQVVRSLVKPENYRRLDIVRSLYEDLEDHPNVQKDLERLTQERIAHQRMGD
T1 sequence (P56524 whole entry, looked up): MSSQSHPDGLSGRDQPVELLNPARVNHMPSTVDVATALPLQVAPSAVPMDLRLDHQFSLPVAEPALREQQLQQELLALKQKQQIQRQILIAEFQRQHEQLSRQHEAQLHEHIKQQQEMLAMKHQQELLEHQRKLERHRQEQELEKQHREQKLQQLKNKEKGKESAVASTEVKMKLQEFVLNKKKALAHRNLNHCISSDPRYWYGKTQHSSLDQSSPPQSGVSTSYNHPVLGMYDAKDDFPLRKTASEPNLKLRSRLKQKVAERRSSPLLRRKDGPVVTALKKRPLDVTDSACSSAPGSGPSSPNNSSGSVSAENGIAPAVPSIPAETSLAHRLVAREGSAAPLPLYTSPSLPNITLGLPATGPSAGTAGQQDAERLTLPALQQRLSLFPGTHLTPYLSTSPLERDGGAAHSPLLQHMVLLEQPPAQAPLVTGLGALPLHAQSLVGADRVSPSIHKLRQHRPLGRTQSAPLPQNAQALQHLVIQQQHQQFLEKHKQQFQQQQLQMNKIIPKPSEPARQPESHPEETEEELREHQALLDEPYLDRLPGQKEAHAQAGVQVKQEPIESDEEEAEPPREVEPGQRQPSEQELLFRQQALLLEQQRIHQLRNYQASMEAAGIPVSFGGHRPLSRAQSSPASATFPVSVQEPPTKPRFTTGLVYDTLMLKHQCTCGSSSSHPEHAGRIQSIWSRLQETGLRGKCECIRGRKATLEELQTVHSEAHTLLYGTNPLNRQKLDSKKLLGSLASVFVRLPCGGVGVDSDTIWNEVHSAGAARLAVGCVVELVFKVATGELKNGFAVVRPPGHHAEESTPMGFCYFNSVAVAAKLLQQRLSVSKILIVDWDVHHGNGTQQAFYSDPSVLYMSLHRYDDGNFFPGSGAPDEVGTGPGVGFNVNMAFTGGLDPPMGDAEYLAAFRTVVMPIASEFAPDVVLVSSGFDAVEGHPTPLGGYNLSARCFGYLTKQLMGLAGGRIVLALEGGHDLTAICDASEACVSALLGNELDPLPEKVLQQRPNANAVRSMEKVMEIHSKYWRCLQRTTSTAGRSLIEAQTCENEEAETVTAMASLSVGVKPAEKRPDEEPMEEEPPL

[2] = target: Histone deacetylase 4 (Homo sapiens, UniProt P56524); experiment: Inhibition of recombinant HDAC4 (unknown origin) using Boc-Lys(TFA)-AMC as substrate by fluorescence based plate reader assay
Histone deacetylase 4, sequence (P56524 whole entry): as the sequence (P56524 whole entry, looked up) above

[3] = target: T1, von Hippel-Lindau disease tumor suppressor/Histone deacetylase 4 (Homo sapiens); experiment: Protac activity at VHL/HDAC4 in human Jurkat E6.1 cells assessed as induction of HDAC4 degradation at 1 uM incubated for 6 hrs by immunoblotting analysis; format: cell-based
[4] = target: Histone deacetylase 9 (Homo sapiens, UniProt Q9UKV0)
Histone deacetylase 9, sequence (Q9UKV0 whole entry): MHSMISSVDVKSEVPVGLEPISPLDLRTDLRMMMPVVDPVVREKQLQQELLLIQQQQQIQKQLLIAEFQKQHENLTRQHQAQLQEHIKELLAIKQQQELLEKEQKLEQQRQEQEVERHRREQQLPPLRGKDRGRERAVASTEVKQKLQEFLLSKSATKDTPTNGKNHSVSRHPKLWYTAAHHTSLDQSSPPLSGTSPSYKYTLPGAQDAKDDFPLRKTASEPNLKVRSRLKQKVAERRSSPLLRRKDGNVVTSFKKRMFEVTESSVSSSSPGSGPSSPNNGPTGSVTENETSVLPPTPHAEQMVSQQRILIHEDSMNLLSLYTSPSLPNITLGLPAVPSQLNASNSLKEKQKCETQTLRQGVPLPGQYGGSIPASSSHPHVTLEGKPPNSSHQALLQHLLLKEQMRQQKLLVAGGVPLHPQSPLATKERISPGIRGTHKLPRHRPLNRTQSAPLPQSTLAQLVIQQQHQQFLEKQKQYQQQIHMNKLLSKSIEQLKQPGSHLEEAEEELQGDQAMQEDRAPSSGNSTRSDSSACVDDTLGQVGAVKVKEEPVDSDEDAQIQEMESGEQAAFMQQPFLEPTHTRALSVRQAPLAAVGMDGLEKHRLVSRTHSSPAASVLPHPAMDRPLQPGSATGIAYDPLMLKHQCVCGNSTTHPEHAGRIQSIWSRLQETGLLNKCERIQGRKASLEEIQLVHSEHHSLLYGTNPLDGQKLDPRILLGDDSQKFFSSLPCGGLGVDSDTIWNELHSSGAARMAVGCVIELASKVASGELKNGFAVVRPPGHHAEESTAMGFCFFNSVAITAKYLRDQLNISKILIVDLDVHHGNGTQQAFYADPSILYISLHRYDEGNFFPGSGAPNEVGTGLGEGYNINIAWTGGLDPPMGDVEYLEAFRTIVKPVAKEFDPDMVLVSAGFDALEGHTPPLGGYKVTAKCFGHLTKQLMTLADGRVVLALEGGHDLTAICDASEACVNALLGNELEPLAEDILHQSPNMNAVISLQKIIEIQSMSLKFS

[5] = target: Class 1 histone deacetylase (Homo sapiens, UniProt Q13547+O15379+Q92769+Q9BY41); experiment: Inhibition of class 1 HDAC in human Jurkat E6.1 cells using Boc-Lys(Ac)-AMC as substrate incubated for 24 hrs by plate reader assay; format: cell-based
[6] = target: Histone deacetylase 5 (Homo sapiens, UniProt Q9UQL6); experiment: Inhibition of recombinant HDAC5 (unknown origin) using Boc-Lys(TFA)-AMC as substrate by fluorescence based plate reader assay
Histone deacetylase 5, sequence (Q9UQL6 whole entry): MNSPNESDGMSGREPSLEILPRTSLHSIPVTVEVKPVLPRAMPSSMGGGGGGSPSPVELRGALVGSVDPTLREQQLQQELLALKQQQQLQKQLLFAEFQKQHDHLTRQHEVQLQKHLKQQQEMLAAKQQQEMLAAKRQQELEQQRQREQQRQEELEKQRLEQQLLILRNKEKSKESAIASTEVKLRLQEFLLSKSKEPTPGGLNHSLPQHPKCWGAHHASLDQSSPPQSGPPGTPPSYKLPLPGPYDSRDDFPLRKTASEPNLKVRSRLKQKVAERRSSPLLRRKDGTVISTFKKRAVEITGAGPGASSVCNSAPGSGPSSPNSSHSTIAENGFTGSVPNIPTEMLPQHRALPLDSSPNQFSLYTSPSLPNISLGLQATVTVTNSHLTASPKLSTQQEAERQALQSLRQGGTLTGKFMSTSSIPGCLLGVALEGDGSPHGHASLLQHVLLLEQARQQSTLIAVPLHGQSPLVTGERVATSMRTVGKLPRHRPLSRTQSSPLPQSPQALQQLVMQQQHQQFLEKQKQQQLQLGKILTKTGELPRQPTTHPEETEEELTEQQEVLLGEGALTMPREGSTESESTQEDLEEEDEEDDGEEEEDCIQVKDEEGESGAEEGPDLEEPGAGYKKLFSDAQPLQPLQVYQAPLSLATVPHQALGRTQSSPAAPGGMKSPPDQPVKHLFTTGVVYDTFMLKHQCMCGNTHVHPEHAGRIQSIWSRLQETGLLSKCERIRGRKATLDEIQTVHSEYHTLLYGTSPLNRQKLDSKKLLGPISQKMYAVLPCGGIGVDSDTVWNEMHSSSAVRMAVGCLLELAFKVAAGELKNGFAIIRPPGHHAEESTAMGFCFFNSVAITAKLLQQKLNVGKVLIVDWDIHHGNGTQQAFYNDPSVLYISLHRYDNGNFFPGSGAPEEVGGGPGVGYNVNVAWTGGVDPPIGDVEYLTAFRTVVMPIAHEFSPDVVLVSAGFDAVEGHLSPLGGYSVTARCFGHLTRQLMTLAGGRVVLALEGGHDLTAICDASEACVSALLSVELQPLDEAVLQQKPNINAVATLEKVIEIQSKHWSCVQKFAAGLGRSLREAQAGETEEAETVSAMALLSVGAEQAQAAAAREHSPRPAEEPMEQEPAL

[7] = species: Homo sapiens; experiment: Selectivity ratio of IC50 for inhibition of HDAC4 (unknown origin) to IC50 for inhibition of HDAC9 (unknown origin)
[8] = species: Homo sapiens; experiment: Selectivity ratio of IC50 for inhibition of HDAC4 (unknown origin) to IC50 for inhibition of HDAC5 (unknown origin)
[9] = species: Homo sapiens; experiment: Selectivity ratio of IC50 for inhibition of HDAC4 (unknown origin) to IC50 for inhibition of HDAC7 (unknown origin)
[10] = target: T2, von Hippel-Lindau disease tumor suppressor/Histone deacetylase 4 (Homo sapiens, UniProt P40337+P56524); experiment: Protac activity at VHL/HDAC4 in human Jurkat E6.1 cells assessed as induction of HDAC4 degradation incubated for 24 hrs by immunoblotting analysis; format: cell-based
T2 sequence (P56524 whole entry): as the sequence (P56524 whole entry, looked up) above
T2 sequence (P40337 whole entry): as the sequence (P40337 whole entry, looked up) above

[11] = target: T2, von Hippel-Lindau disease tumor suppressor/Histone deacetylase 4; experiment: Protac activity at VHL/HDAC4 in human Jurkat E6.1 cells assessed as induction of HDAC4 degradation incubated for 24 hrs by ELISA-based MSD electrochemiluminescence assay; format: cell-based
[12] = Kinetic aqueous solubility of the compound in PBS buffer at pH 7.4 incubated for 2 hrs under shaking condition by LC-UV analysis; format: physicochemical; settings: read-out: Kinetic_solubility
[13] = Inhibition of class 2a HDAC in human Jurkat E6.1 cells using Boc-Lys(TFA)-AMC as substrate incubated for 24 hrs by plate reader assay; format: cell-based; settings: Jurkat E6.1, 24 h
[14] = target: T3, Histone deacetylase 7 (Homo sapiens, UniProt Q8WUI4); experiment: Inhibition of recombinant HDAC7 (unknown origin) using Boc-Lys(TFA)-AMC as substrate by fluorescence based plate reader assay
T3 sequence (Q8WUI4 whole entry): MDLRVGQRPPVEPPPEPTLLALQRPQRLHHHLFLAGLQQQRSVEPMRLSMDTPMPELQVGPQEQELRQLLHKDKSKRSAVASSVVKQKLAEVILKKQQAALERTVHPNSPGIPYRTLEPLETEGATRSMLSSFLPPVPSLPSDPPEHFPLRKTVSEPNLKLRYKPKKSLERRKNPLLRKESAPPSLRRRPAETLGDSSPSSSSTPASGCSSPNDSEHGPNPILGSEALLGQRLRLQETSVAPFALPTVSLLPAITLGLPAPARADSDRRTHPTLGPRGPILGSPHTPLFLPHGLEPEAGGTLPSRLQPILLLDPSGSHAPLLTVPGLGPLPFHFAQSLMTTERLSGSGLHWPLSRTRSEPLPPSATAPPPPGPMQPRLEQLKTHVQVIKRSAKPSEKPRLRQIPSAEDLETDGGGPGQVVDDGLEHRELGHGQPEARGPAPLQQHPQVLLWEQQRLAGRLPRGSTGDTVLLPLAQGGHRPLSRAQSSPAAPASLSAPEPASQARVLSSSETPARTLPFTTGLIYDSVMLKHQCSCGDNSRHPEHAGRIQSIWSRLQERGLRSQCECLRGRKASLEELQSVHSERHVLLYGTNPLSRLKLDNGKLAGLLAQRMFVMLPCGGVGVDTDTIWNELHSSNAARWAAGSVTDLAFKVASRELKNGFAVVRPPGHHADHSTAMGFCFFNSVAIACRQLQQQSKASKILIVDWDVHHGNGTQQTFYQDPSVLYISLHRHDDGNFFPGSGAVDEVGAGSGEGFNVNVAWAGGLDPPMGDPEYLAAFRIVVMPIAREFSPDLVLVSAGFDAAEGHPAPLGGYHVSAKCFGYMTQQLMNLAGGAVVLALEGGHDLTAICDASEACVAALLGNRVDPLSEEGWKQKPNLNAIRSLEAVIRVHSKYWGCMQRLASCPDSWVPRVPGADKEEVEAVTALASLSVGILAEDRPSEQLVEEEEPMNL

[15] = Efflux ratio of apparent permeability basolateral to apical over apical to basolateral side in MDCK-MDR1 cells; format: ADME, cell-based, Canis lupus familiaris; settings: dog
[16] = Apparent permeability in MDCK-BCRP cells; format: ADME, cell-based, Canis lupus familiaris; settings: dog
[17] = target: T4, Vhl/Hdac4 (Mus musculus, UniProt P40338+Q6NZM9); experiment: Protac activity at VHL/HDAC4 in mouse Neuro2a cells assessed as induction of HDAC4 degradation preincubated with elacridar for 1 hr followed by compound addition and measured after 24 hrs by MSD assay
T4 sequence (Q6NZM9 whole entry): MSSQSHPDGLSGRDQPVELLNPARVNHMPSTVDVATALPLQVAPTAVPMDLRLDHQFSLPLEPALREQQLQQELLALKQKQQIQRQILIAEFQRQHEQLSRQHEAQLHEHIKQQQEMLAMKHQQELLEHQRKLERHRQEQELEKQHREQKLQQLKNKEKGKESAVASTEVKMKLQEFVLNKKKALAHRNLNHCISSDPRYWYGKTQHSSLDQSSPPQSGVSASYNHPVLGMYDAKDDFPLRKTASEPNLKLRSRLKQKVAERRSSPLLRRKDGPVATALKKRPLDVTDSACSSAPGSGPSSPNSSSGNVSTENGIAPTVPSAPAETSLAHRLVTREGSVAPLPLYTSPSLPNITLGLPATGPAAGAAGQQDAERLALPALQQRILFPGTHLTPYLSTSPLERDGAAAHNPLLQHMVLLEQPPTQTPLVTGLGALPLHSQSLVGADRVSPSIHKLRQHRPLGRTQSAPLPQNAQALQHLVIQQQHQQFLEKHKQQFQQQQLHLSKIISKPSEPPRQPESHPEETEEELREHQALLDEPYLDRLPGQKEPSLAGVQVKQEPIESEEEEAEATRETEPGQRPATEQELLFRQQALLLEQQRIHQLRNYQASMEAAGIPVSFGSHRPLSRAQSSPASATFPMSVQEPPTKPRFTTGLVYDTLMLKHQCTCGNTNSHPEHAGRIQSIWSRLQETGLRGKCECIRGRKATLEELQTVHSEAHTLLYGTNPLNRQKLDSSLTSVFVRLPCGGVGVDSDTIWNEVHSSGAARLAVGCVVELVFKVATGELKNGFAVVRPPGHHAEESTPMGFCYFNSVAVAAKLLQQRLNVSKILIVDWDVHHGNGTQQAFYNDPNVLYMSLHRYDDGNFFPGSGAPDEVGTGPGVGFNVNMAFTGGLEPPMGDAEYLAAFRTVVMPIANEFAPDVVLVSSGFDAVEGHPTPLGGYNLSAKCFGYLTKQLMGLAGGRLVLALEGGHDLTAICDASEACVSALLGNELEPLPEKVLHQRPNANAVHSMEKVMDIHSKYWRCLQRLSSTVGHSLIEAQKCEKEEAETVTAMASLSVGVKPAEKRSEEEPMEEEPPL
T4 sequence (P40338 whole entry): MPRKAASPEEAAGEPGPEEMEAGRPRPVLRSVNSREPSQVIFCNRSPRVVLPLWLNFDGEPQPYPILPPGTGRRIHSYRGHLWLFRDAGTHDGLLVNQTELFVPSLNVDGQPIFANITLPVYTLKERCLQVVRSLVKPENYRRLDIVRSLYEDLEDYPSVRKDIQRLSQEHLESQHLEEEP

[18] = Apparent permeability in MDCK-MDR1 cells; format: ADME, cell-based, Canis lupus familiaris; settings: dog
[19] = target: T2, von Hippel-Lindau disease tumor suppressor/Histone deacetylase 4; experiment: Protac activity at VHL/HDAC4 in human Jurkat E6.1 cells assessed as induction of HDAC4 degradation incubated for 24 hrs in absence of elacridar by Western blot analysis; format: cell-based
[20] = Apparent permeability in MDCK cells; format: ADME, cell-based, Canis lupus familiaris; settings: dog
[21] = Selectivity ratio of DC50 for protac activity at VHL/HDAC4 in mouse Neuro2a cells to DC50 for protac activity at VHL/HDAC4 in human Jurkat E6.1 cells; format: cell-based
[22] = Efflux ratio of apparent permeability basolateral to apical over apical to basolateral side in MDCK-BCRP cells; format: ADME, cell-based, Canis lupus familiaris; settings: dog
[23] = Efflux ratio of apparent permeability basolateral to apical over apical to basolateral side in MDCK cells; format: ADME, cell-based, Canis lupus familiaris; settings: dog
[24] = target: T2, von Hippel-Lindau disease tumor suppressor/Histone deacetylase 4; experiment: Protac activity at VHL/HDAC4 in human Jurkat E6.1 cells assessed as induction of HDAC4 degradation preincubated with elacridar for 1 hr followed by compound addition and measured after 24 hrs by Western blot analysis; format: cell-based
[25] = target: T4, Vhl/Hdac4; experiment: Protac activity at VHL/HDAC4 in Q175 KI mouse cortical neuron assessed as induction of HDAC4 degradation incubated for 4 to 72 hrs in absence of elacridar by MSD assay; format: cell-based
[26] = target: T4, Vhl/Hdac4; experiment: Protac activity at VHL/HDAC4 in mouse Neuro2a cells assessed as induction of HDAC4 degradation incubated for 24 hrs in absence of elacridar by MSD assay

Row | Structure (SMILES) | Emax [1] [%] | IC50 [2] [µM] | IC50 [4] [µM] | IC50 [5] [µM] | IC50 [6] [µM] | EC50 [11] [µM] | solubility kinetic at 2 h [12] [µM] | IC50 [13] [µM] | IC50 [14] [µM] | other results
1 | Cc1ncsc1-c1ccc(CNC(=O)[C@@H]2C[C@@H](O)CN2C(=O)[C@@H](NC(=O)COCCOCCOCCOCCOCC(F)(F)c2cnc(-c3ccc(C(C(=O)NO)c4ccccc4F)cc3)nc2)C(C)(C)C)cc1 (some centres undefined) | 83 | 1.1 | 0.42 | > 5 | 0.26 | 0.037 | 4.8 (≈ 5.04 µg/mL) | 0.12 | 0.25 | Activity [3]: Active; Ratio IC50 [7]: 3; Ratio IC50 [8]: 3; Ratio IC50 [9]: 3; EC50 [10]: 0.011 µM
2 | CCCN(CCCCOCCOCCOCC(=O)N[C@H](C(=O)N1C[C@H](O)C[C@H]1C(=O)NCc1ccc(-c2scnc2C)cc1)C(C)(C)C)C[C@@H](C)NC(=O)c1ccc(-c2noc(C(F)(F)F)n2)cc1 | 72 | 0.09 | 0.13 | 4.3 | 0.14 | 0.003 | 100 (≈ 98.7 µg/mL) | 0.033 | 0.22 | 
3 | CCCN(CCCCOCCOCCOCCOCC(=O)N[C@H](C(=O)N1C[C@H](O)C[C@H]1C(=O)NCc1ccc(-c2scnc2C)cc1)C(C)(C)C)C[C@@H](C)NC(=O)c1ccc(-c2noc(C(F)(F)F)n2)cc1 | 85 | 0.1 | 0.22 | 2.8 | 0.25 | 0.004 | 132 (≈ 136 µg/mL) | 0.002 | 0.23 | 
4 | CCCN(CCCCOCCOCCOCCOCCOCC(=O)N[C@H](C(=O)N1C[C@H](O)C[C@H]1C(=O)NCc1ccc(-c2scnc2C)cc1)C(C)(C)C)C[C@@H](C)NC(=O)c1ccc(-c2noc(C(F)(F)F)n2)cc1 | 78 | 0.092 | 0.094 | > 5 | 0.15 | 0.004 | 144 (≈ 155 µg/mL) | 0.006 | 0.15 | Ratio [15]: 7; Papp [16]: 1.4 ×10⁻⁶ cm/s; EC50 [17]: 0.0023 µM; Papp [18]: 2.6 ×10⁻⁶ cm/s; EC50 [19]: 0.0017 µM; Papp [20]: 2.1 ×10⁻⁶ cm/s; EC50 [10]: 0.002 µM; Ratio EC50 [21]: 20; Ratio [22]: 5; Ratio [23]: 13; EC50 [24]: 0.0016 µM; EC50 [25]: 0.0011 µM; EC50 [26]: 0.081 µM
5 | Cc1ncsc1-c1ccc(CNC(=O)[C@@H]2C[C@H](O)CN2C(=O)[C@@H](NC(=O)COCCOCCOCCOCCOCC(F)(F)c2cnc(-c3ccc(C(C(=O)NO)c4ccccc4F)cc3)nc2)C(C)(C)C)cc1 (some centres undefined) | 20 | 0.23 |  | > 5 |  | > 10 | 4.8 (≈ 5.04 µg/mL) | 0.13 |  | 
6 | CCCN(CCCCOCCOCCOCCOCCOCC(=O)N[C@@H](C(=O)N1C[C@@H](O)C[C@@H]1C(=O)NCc1ccc(-c2scnc2C)cc1)C(C)(C)C)C[C@@H](C)NC(=O)c1ccc(-c2noc(C(F)(F)F)n2)cc1 | 50 | 0.15 |  | > 5 |  | > 10 |  | 0.18 |  | 
7 | Cc1ncsc1-c1ccc(CNC(=O)[C@@H]2C[C@@H](O)CN2C(=O)[C@@H](NC(=O)COCCOCCOCC(F)(F)c2cnc(-c3ccc(C(C(=O)NO)c4ccccc4F)cc3)nc2)C(C)(C)C)cc1 (mixture of isomers) | 77 | 0.41 | 0.29 | > 5 | 0.23 | 0.028 | 5.2 | 0.15 | 0.21 | 
8 | CCCN(CCC)C[C@@H](C)NC(=O)c1ccc(-c2noc(C(F)(F)F)n2)cc1 |  |  |  |  |  |  | 145 (≈ 57.8 µg/mL) |  |  | 
9 | Cc1ncsc1-c1ccc(CNC(=O)[C@@H]2C[C@@H](O)CN2C(=O)[C@@H](NC(=O)COCCOCCOCCOCC(F)(F)c2cnc(-c3ccc(C(C(=O)NO)c4ccccc4F)cc3)nc2)C(C)(C)C)cc1 (some centres undefined) | 82 | 0.56 | 0.34 | > 5 | 0.31 | 0.048 | 5 (≈ 5.03 µg/mL) | 0.16 | 0.21 | 
